For this assay, the target named is IRAK4 (Homo sapiens (Human), UniProt Q9NWZ3). In words: IRAK4 kinase activity, IMAP fluorescence polarization assay. It counts as biochemical. Conditions: 100 μM ATP, read-out: IRAK4 IC50. Summed up:
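GST-tagged IRAK4 at 0.5 nM phosphorylates 100 nM fluorescent peptide substrate with 100 μM ATP in pH 7.2 Tris buffer containing MgCl2, DTT and Tween 20, 30 min at 25 °C. Reaction stopped with IMAP binding reagent; phosphorylation read as increased fluorescence polarization.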

Here are results for seven compounds from patent US9221809B2 (MERCK SHARP & DOHME CORP., priority 2011, dated 2015).

pIC50: −log10 of the molar value. Structures can show the parent of a compound that is named as a salt. Where two headings read alike, the source gives them in different places.

Sequence of IRAK4 (Q9NWZ3 whole entry): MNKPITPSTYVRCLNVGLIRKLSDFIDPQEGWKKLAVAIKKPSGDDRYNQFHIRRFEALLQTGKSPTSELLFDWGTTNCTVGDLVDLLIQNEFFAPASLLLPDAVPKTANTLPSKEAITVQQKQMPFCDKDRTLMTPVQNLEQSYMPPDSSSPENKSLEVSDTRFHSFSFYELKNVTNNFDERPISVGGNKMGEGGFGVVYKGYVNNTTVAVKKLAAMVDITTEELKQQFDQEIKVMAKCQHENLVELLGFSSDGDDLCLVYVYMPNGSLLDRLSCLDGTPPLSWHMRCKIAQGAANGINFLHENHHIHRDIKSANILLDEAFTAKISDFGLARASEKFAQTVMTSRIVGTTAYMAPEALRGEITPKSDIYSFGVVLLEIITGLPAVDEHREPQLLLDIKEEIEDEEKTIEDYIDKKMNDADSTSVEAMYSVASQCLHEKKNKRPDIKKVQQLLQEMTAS

Take `O=c1[nH]c(N2CCOCC2)nc(N[C@@H]2CCCNC2)c1-c1nc2cc(C(F)(F)F)ccc2s1` [Example 337, 2-(morpholin-4-yl)-6-[[(3R)-piperidin-3-yl]amino]-5-[5-(trifluoromethyl)-1,3-benzothiazol-2-yl]-3,4-dihydropyrimidin-4-one]: the pIC50 (0.5 nM GST tagged IRAK4) was 7.15. Turning to `O=c1[nH]c(N2CCOCC2)nc(N[C@@H]2CCCNC2)c1-c1nc2ccccc2o1` [Example 196], the pIC50 was 5.74. Consider `O=c1[nH]c(N2CCOCC2)nc(N[C@@H]2CCCNC2)c1-c1nc2cc(Br)ccc2s1` [Example 345, 5-(5-bromo-1,3-benzothiazol-2-yl)-2-(morpholin-4-yl)-6-[[(3R)-piperidin-3-yl]amino]-3,4-dihydropyrimidin-4-one], for which the pIC50 (0.5 nM GST tagged IRAK4) is 7.72. As for `CC(=O)NCC1CCN(c2nc(N[C@@H]3C[C@H](CO)[C@@H](O)[C@H]3O)c(-c3nc4ccccc4s3)c(=O)[nH]2)CC1` [Example 79, N-((1-(5-(benzo[d]thiazol-2-yl)-4-((1R,2S,3R,4R)-2,3-dihydroxy-4-(hydroxymethyl)cyclopentylamino)-6-oxo-1,6-dihydropyrimidin-2-yl)piperidin-4-yl)methyl)acetamide], the pIC50 (unit inferred) is 7.44. On to `CCc1nc(N[C@@H]2C[C@H](CO)[C@@H](O)[C@H]2O)c(-c2nc3ccccc3s2)c(=O)[nH]1` [Example 61, 5-(Benzo[d]thiazol-2-yl)-6-((1R,2S,3R,4R)-2,3-dihydroxy-4-(hydroxymethyl)cyclopentylamino)-2-ethylpyrimidin-4(3H)-one.HCl], for which the pIC50 (0.5 nM GST tagged IRAK4) was 5.93. Still for that read-out and setting: the value for `Cc1ccc(-c2c(N[C@@H]3CCCNC3)nc(N3CCOCC3)[nH]c2=O)nc1` [Example 110, (R)-5-(5-methylpyridin-2-yl)-2-morpholino-6-(piperidin-3-ylamino)pyrimidin-4(3H)-one] was 6.06; that for `O=c1[nH]c(N2CCOCC2)nc(N[C@@H]2CCCNC2)c1-c1nccs1` [Example 101, (R)-2-morpholino-6-(piperidin-3-ylamino)-5-(thiazol-2-yl)pyrimidin-4(3H)-one.HCl] was 5.74.

By pIC50 is commonly meant the negative decadic logarithm of the IC50, by convention in mol/L.
